Here are results for 34 molecules from US6335306B1, “Thermosensitive recording material of heat fixing type and method of fixing the same” (Oji Paper Co., Ltd., priority 1998, dated 2002).

Counter-ions that a name gives are not always drawn.

The nature of data set [1]: log P, OECD Chemical Test Guideline No. 117, partition coefficient. To be noted: for log P: OECD Guideline No. 117.
Excerpt: The log P in the present invention is a value determined according to OECD Test, Chemical Test Guideline No. 117, Partition Coefficient; edited by Chemical Product Examination Association). The log P is the logarithm of the partition coefficient P. The higher the value of the partition coefficient, the higher the hydrophobicity; and the lower thereof, the higher the hydrophilicity.
The nature of data set [2]: Color Developer Test Method: solvent resistance of the color image, salad oil (Mds). Type of data set: physicochemical. The settings on record: colored portion coated with salad oil, wiped, left standing 0.5 hour; Macbeth RD-914. The protocol: (§1) Thermosensitive recording paper sheet is prepared by a process which will be described below.
(§2) The above-described composition is pulverized with a paint shaker to an average particle diameter of about 1 μm.
(§3) The above-described composition is pulverized with a paint shaker to an average particle diameter of not larger than 1 μm.
(§4) The above-described composition is pulverized with a paint shaker to an average particle article diameter of not larger than 1 μm.
(§5) A coating liquid is obtained by mixing 60 parts of the dispersion A, 240 parts of the dispersion B, 80 parts of the dispersion C, and 90 parts of 10% aqueous polyvinyl alcohol solution under stirring. The coating liquid thus obtained is applied to the support so that the amount of the coating after drying would be 8.0 g/m^2 to form a thermosensitive color image-forming layer, and thereby to obtain a thermosensitive recording paper.
(§6) The sample thus obtained is printed with a coloring tester (THPMD; a product of Ohkura Electric Co., Ltd.) under conditions comprising a printing voltage of 21.7 V and printing pulse of 1.0 ms. The color density of the printed parts is determined with a Macbeth Reflection Color Density Tester RD-914 (a product of Macbeth).
(§7) The colored portion of the thermosensitive recording material thus obtained in (5) is coated with dioctyl phthalate or salad oil, which is then removed by wiping with Klinex, followed by leaving it for standing for 0.5 hour and measuring the density of the printed parts is determined with a Macbeth Reflection Color Density Tester RD-914 (a product of Macbeth).
(§8) The solvent resistance of the color image formed by using the color developer can be evaluated based on the Macbeth density (hereinafter referred to as “Mdd”) of 0.2 or higher, preferably 0.4 or higher according to the Color Developer Test Method as stated above wherein dioctyl phthalate is used. The solvent resistance of the color image formed using the color developer can be evaluated based on the Macbeth density (hereinafter referred to as “Mds”) of 0.5 or higher, preferably 0.6 or higher according to the Color Developer Test Method as stated above wherein salad oil is used.

A short description of data set [3]: Color Developer Test Method: solvent resistance of the color image, dioctyl phthalate (Mdd). Type of data set: physicochemical. The settings on record: colored portion coated with dioctyl phthalate, wiped, left standing 0.5 hour, Macbeth RD-914. The protocol:
as §1, §2, §3, §4, §5, §6, §7, §8

Where [4] appears, read: n-octanol/water (OECD Test Guideline 117, HPLC method).

Turning to `Cc1ccc(CCc2ccc(C)c(C)c2)cc1C` [1,2-bis(3,4-dimethylphenyl)ethane], the chromatographic logP (as a rule, a lipophilicity value derived from retention on a column) in data set [1] (octanol/water) worked out at 7.8.
On to `Cc1cccc(OCCOc2cccc(C)c2)c1` [1,2-bis(m-tolyloxy)ethane], for which the chromatographic logP in data set [1] (n-octanol/water) turned out to be 5.
In the case of `O=C(Oc1ccccc1)c1ccc2ccccc2c1O` [phenyl 1-hydroxy-2-naphthoate], the chromatographic logP in data set [1] (n-octanol/water) and in data set [1] (setting [4]) was 5.1 throughout.
In data set [1] (setting [4]), `Cc1ccc(S(=O)(=O)Oc2ccccc2)cc1` [phenyl p-toluenesulfonate] displayed a chromatographic logP of 3.1.
Molecule `c1ccc(OCCOc2ccc3ccccc3c2)cc1` [1-phenoxy-2-β-naphthoxyethane] gave a chromatographic logP in data set [1] (n-octanol/water) of 5.2.
Regarding `Cc1ccc(S(=O)(=O)NC(=O)Nc2cccc3c(NC(=O)NS(=O)(=O)c4ccc(C)cc4)cccc23)cc1` [1,5-bis(p-toluenesulfonylaminocarbonylamino)naphthalene], in data set [2], the “Mds (Macbeth density of the printed part after coating with salad oil)” value is listed as 1.05.
`Cc1ccc(S(=O)(=O)NC(=O)Nc2ccc(Oc3cccc(NC(=O)NS(=O)(=O)c4ccc(C)cc4)c3)cc2)cc1` [3,4′-bis(p-toluenesulfonylaminocarbonylamino)diphenyl ether]: the “Mdd (Macbeth density of the printed part after coating with dioctyl phthalate)” value in data set [3] came out at 0.93; in data set [3] (listed as 3,4′-bis(p-toluenesulfonylaminocarbonylamino)diphenyl ether) it was 1.0.
In data set [1] (setting [4]), `O=C(OCc1ccccc1)C(=O)OCc1ccccc1` [dibenzyl oxalate] yielded a chromatographic logP of 3.1.
Take `O=C(Nc1ccc(Cc2ccc(NC(=O)NS(=O)(=O)c3cccc4ccccc34)cc2)cc1)NS(=O)(=O)c1cccc2ccccc12` [4,4′-bis(1-naphthalenesulfonylaminocarbonylamino) diphenyl methane]: the “Mds (Macbeth density of the printed part after coating with salad oil)” value in data set [2] stood at 0.5.
Still for that read-out and setting: with `Cc1ccc(S(=O)(=O)NC(=O)Nc2ccc(NC(=O)NS(=O)(=O)c3ccc(C)cc3)cc2)cc1` [1,4-bis(p-toluenesulfonylaminocarbonylamino)benzene] the figure was 0.84.
In data set [1] (n-octanol/water), `CC(=O)CC(=O)Nc1ccccc1Cl` [o-chloroacetoacetoanilide] yielded a chromatographic logP of 0.2.
For `Cc1ccc(S(=O)(=O)NC(=O)Nc2ccc(Oc3cccc(Oc4ccc(NC(=O)NS(=O)(=O)c5ccc(C)cc5)cc4)c3)cc2)cc1` [1,3-bis(4′-(p-toluenesulfonylaminocarbonylamino)phenyloxy)benzene], in data set [3], the “Mdd (Macbeth density of the printed part after coating with dioctyl phthalate)” value is recorded as 1.0.
As to `Cc1ccc(OS(=O)(=O)c2c(C)cc(C)cc2C)cc1` [p-tolyl mesitylenesulfonate], the chromatographic logP in data set [1] (n-octanol/water) came to 3.1.
With `COc1ccc(OCCOCCOc2ccc(OC)cc2)cc1` [bis(2-(4-methoxyphenoxy)ethyl) ether], the chromatographic logP in data set [1] (n-octanol/water) worked out at 2.9.
Consider `Cc1ccc(S(=O)(=O)NC(=O)Nc2ccc(S(=O)(=O)c3ccc(NC(=O)NS(=O)(=O)c4ccc(C)cc4)cc3)cc2)cc1` [4,4′-bis(p-toluenesulfonylaminocarbonylamino)diphenylsulfone], for which the “Mdd (Macbeth density of the printed part after coating with dioctyl phthalate)” value in data set [3] was determined as 0.81.
`C=CCOc1ccc(S(=O)(=O)c2ccc(OCC=C)cc2)cc1` [4,4′-diallyloxydiphenylsulfone]: the log P (as a rule, a log measure of how a compound divides between an organic and an aqueous phase) in data set [1] is on record as 3.3.
Molecule `O=C(OCc1ccccc1)c1ccc(C(=O)OCc2ccccc2)cc1` [dibenzyl terephthalate] returned a chromatographic logP in data set [1] (n-octanol/water) of 5.7.
Regarding `Cc1ccc(S(=O)(=O)NC(=O)Nc2ccc(Sc3ccc(NC(=O)NS(=O)(=O)c4ccc(C)cc4)cc3)cc2)cc1` [4,4′-bis(p-toluenesulfonylaminocarbonylamino)diphenyl sulfide], the “Mdd (Macbeth density of the printed part after coating with dioctyl phthalate)” value in data set [3] is on record as 0.96.
The same measure, in the same setting: with `Cc1ccccc1S(=O)(=O)NC(=O)Nc1ccc(Cc2ccc(NC(=O)NS(=O)(=O)c3ccccc3C)cc2)cc1` [4,4′-bis(o-toluenesulfonylaminocarbonylamino)diphenyl methane] the figure was 1.0.
`c1ccc(-c2cccc(-c3ccccc3)c2)cc1` [m-terphenyl] showed a chromatographic logP in data set [1] (octanol/water) of 6.16.
`O=C(CCCCC(=O)OCc1ccccc1Cl)OCc1ccccc1Cl` [di-o-chlorobenzyl adipate]: in data set [1], the “log P” value was 5.8.
Turning to `COc1ccc(OCCOc2ccc(C(=O)O)c(O)c2)cc1` [4-(2-(p-methoxyphenyloxy)ethyloxy)salicylic acid], in data set [3], the “Mdd (Macbeth density of the printed part after coating with dioctyl phthalate)” value is 0.5.
In the case of `O=S(=O)(c1ccccc1)c1ccccc1` [diphenylsulfone], in data set [1] (setting [4]), the chromatographic logP was determined as 1.5.
Regarding `c1ccc(Cc2ccc(-c3ccccc3)cc2)cc1` [p-benzylbiphenyl], the chromatographic logP in data set [1] (n-octanol/water) was found to be 6.3.
Turning to `Cc1ccc(S(=O)(=O)NC(=O)Nc2ccc(Cc3ccc(NC(=O)NS(=O)(=O)c4ccc(C)cc4)cc3)cc2)cc1` [4,4′-bis(p-toluenesulfonylaminocarbonylamino)diphenylmethane], the “Mdd (Macbeth density of the printed part after coating with dioctyl phthalate)” value in data set [3] came out at 1.0.
In the case of `O=S(=O)(c1ccccc1)c1ccc(O)c(S(=O)(=O)c2ccccc2)c1` [2,4-bis(phenylsulfonyl)phenol], the “Mds (Macbeth density of the printed part after coating with salad oil)” value in data set [2] stood at 0.6.
Regarding `Cc1ccc(S(=O)(=O)NC(=O)Nc2ccc(Oc3ccc(NC(=O)NS(=O)(=O)c4ccc(C)cc4)cc3)cc2)cc1` [4,4′-bis(p-toluenesulfonylaminocarbonylamino)diphenyl ether], in data set [3], the “Mdd (Macbeth density of the printed part after coating with dioctyl phthalate)” value was 1.0.
As for `Cc1ccc(Oc2ccc(Oc3ccc(C)cc3)cc2)cc1` [1,4-bis(p-tolyloxy)benzene], the chromatographic logP in data set [1] (n-octanol/water) turned out to be 3.1.
For the molecule `O=C(Nc1ccc(Cc2ccc(NC(=O)NS(=O)(=O)c3ccccc3)cc2)cc1)NS(=O)(=O)c1ccccc1` [4,4′-bis(benzenesulfonylaminocarbonylamino)diphenyl methane], in data set [3], the “Mdd (Macbeth density of the printed part after coating with dioctyl phthalate)” value turned out to be 0.8.
The molecule `c1ccc(OCCOc2ccccc2)cc1` [1,2-diphenoxyethane] gave a chromatographic logP in data set [1] (setting [4]) of 3.6.
As to `Cc1ccc(S(=O)(=O)NC(=O)Nc2cccc(S(=O)(=O)c3cccc(NC(=O)NS(=O)(=O)c4ccc(C)cc4)c3)c2)cc1` [3,3′-bis(p-toluenesulfonylaminocarbonylamino)diphenylsulfone], the “Mdd (Macbeth density of the printed part after coating with dioctyl phthalate)” value in data set [3] is given as 0.63.
As for `Cc1ccc(S(=O)(=O)NC(=O)Nc2cccc3cccc(NC(=O)NS(=O)(=O)c4ccc(C)cc4)c23)cc1` [1,8-bis(p-toluenesulfonylaminocarbonylamino)naphthalene], in data set [2], the “Mds (Macbeth density of the printed part after coating with salad oil)” value is listed as 0.73.
Regarding `Cc1ccc(S(=O)(=O)NC(=O)Nc2cccc(NC(=O)NS(=O)(=O)c3ccc(C)cc3)c2)cc1` [1,3-bis(p-toluenesulfonylaminocarbonylamino)benzene], the “Mds (Macbeth density of the printed part after coating with salad oil)” value in data set [2] is listed as 1.2.
On to `CC(C)(c1ccc(O)cc1)c1ccc(O)cc1` [2,2-bis(4-hydroxyphenyl)propane, reference compound], for which, in data set [3], the “Mdd (Macbeth density of the printed part after coating with dioctyl phthalate)” value came out at 0.1.
